In PMC8119466, “A screen of FDA-approved drugs identifies inhibitors of protein tyrosine phosphatase 4A3 (PTP4A3 or PRL-3)” (Scientific Reports, 2021):
Where a name gives a salt, the structure may show the parent alone. Read-outs that look alike come from different tables or passages of the source.

What was measured:
Assay type in all cases: biochemical
recombinant PRL-2 = molecular target: T1, recombinant PRL-2 (Homo sapiens, UniProt Q12974); assay: In vitro phosphatase assay (DiFMUP hydrolysis), PRL-2;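 also: PRL-2 activity read as DiFMUP hydrolysis after 20 min at room temperature with drug, enzyme first pre-reduced at 4 °C for 20 min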
T1 construct: 6xHis (N, cleaved yes); made in house; host or cells: E. coli One Shot BL21 Star
T1 sequence (Q12974 1-167): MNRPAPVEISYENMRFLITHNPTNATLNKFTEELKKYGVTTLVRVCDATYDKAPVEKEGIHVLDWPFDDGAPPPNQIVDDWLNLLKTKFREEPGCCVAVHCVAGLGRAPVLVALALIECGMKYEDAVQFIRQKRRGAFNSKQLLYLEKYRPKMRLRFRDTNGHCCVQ

recombinant PRL-1 = molecular target: T2, recombinant PRL-1 (Homo sapiens, UniProt Q93096); assay: In vitro phosphatase assay (DiFMUP hydrolysis), PRL-1; also: test concentration or dose not given here
T2 construct: 6xHis (N, cleaved yes); made in house; host or cells: E. coli One Shot BL21 Star
T2 sequence (Q93096 1-173): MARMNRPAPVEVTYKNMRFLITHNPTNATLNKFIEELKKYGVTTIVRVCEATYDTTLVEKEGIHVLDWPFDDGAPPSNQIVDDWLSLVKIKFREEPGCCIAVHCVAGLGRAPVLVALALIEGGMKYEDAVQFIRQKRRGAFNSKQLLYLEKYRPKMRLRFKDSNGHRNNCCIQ

recombinant PRL-3 = molecular target: T3, recombinant PRL-3 (Homo sapiens, UniProt O75365); assay: In vitro phosphatase assay (DiFMUP hydrolysis), PRL-3; also: test concentration or dose not given here
T3 construct: 6xHis (N, cleaved yes); made in house; host or cells: E. coli One Shot BL21 Star
T3 sequence (O75365 whole entry): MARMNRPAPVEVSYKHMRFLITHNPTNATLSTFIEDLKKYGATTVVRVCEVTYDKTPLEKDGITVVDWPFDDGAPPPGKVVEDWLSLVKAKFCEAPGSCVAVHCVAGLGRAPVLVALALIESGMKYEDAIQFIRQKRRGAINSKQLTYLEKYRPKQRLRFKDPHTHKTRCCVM

[1] = FDA-approved drug screen, compared to DMSO

Structure (SMILES) | % Phosphatase Activity (compared to DMSO) PRL-2 (recombinant PRL-2; [1]) [%] | % Phosphatase Activity (compared to DMSO) PRL-1 (recombinant PRL-1; [1]) [%] | % Phosphatase Activity (compared to DMSO) PRL-3 (recombinant PRL-3; [1]) [%] | % Phosphatase Activity (compared to DMSO) PRL-2 (recombinant PRL-2) [%] | % Phosphatase Activity (compared to DMSO) PRL-1 (recombinant PRL-1) [%] | % Phosphatase Activity (compared to DMSO) PRL-3 (recombinant PRL-3) [%]
Cc1cccc(-c2nn3c(c2-c2ccnc4ccc(C(N)=O)cc24)CCC3)n1 [LY2157299] | 130 | 111 | 115 |  |  | 
CC(C)(C)Cn1c(N)nc2ccc(-c3[nH]c(C(C)(C)C)nc3-c3ccc(F)cc3)nc21 [LY2228820] | 137 | 159 | 131 |  |  | 
Cc1cc(Nc2cc(CN3CCOCC3)c3nc(C)c(Cc4ccc(Cl)cc4F)n3n2)n[nH]1 [LY2784544] | 167 | 146 | 95 |  |  | 
CCN1CCN(Cc2ccc(Nc3ncc(F)c(-c4cc(F)c5nc(C)n(C(C)C)c5c4)n3)nc2)CC1 [LY2835219] | 79 | 92 | 99 |  |  | 
CC(CCc1ccccc1)NCC(O)c1ccc(O)c(C(N)=O)c1 (stereo not drawn) [Labetalol HCl] | 154 | 156 | 110 |  |  | 
CCOC(=O)C1=C(C)NC(C)=C(C(=O)OCC)C1c1ccccc1/C=C/C(=O)OC(C)(C)C [Lacidipine] | 329 | 232 | 172 |  |  | 
O=C(C[S+]([O-])Cc1ccco1)NC/C=C\COc1cc(CN2CCCCC2)ccn1 (stereo not drawn) [Lafutidine] | 115 | 114 | 83 |  |  | 
Nc1ccn([C@@H]2CS[C@H](CO)O2)c(=O)n1 [Lamivudine] | 113 | 104 | 92 |  |  | 
Nc1nnc(-c2cccc(Cl)c2Cl)c(N)n1 [Lamotrigine] | 110 | 121 | 83 |  |  | 
Cc1c(OCC(F)(F)F)ccnc1C[S+]([O-])c1nc2ccccc2[nH]1 (stereo not drawn) [Lansoprazole] | 92 | 94 | 59 |  |  | 
CS(=O)(=O)CCNCc1ccc(-c2ccc3ncnc(Nc4ccc(OCc5cccc(F)c5)c(Cl)c4)c3c2)o1.Cc1ccc(S(=O)(=O)O)cc1.Cc1ccc(S(=O)(=O)O)cc1 [Lapatinib (GW-572016) Ditosylate] |  |  |  | 255 | 212 | 142
CS(=O)(=O)CCNCc1ccc(-c2ccc3ncnc(Nc4ccc(OCc5cccc(F)c5)c(Cl)c4)c3c2)o1 [Lapatinib] |  |  |  | 207 | 207 | 121
COC(=O)N[C@H](C(=O)N1CC2(CC2)C[C@H]1c1nc(-c2ccc3c(c2)C(F)(F)c2cc(-c4ccc5[nH]c([C@@H]6[C@H]7CC[C@H](C7)N6C(=O)[C@@H](NC(=O)OC)C(C)C)nc5c4)ccc2-3)c[nH]1)C(C)C [Ledipasvir (GS5885)] | 115 | 174 | 144 |  |  | 
Cc1oncc1C(=O)Nc1ccc(C(F)(F)F)cc1 [Leflunomide] | 80 | 88 | 67 |  |  | 
Nc1cccc2c1CN(C1CCC(=O)NC1=O)C2=O (stereo not drawn) [Lenalidomide (CC-5013)] | 95 | 87 | 84 |  |  | 
COc1cc2nccc(Oc3ccc(NC(=O)NC4CC4)c(Cl)c3)c2cc1C(N)=O [Lenvatinib (E7080)] | 85 | 96 | 87 |  |  | 
COC(=O)C1=C(C)NC(C)=C(C(=O)OC(C)(C)CN(C)CCC(c2ccccc2)c2ccccc2)C1c1cccc([N+](=O)[O-])c1.Cl (stereo not drawn) [Lercanidipine (hydrochloride)] | 101 | 87 | 84 |  |  | 
O=C(O)CSc1nnc(Br)n1-c1ccc(C2CC2)c2ccccc12 [Lesinurad] | 102 | 90 | 85 |  |  | 
N#Cc1ccc(C(c2ccc(C#N)cc2)n2cncn2)cc1 [Letrozole] | 85 | 94 | 74 |  |  | 

Structure (SMILES) | % Phosphatase Activity (compared to DMSO) PRL-2 (recombinant PRL-2; [1]) [%] | % Phosphatase Activity (compared to DMSO) PRL-1 (recombinant PRL-1; [1]) [%] | % Phosphatase Activity (compared to DMSO) PRL-3 (recombinant PRL-3; [1]) [%] | % Phosphatase Activity (compared to DMSO) PRL-2 (recombinant PRL-2) [%] | % Phosphatase Activity (compared to DMSO) PRL-1 (recombinant PRL-1) [%] | % Phosphatase Activity (compared to DMSO) PRL-3 (recombinant PRL-3) [%]
CC(C)NC[C@H](O)COc1ccc(CCOCC2CC2)cc1.Cl [Levobetaxolol HCl] |  |  |  | 99 | 100 | 69
CCCCN1CCCC[C@H]1C(=O)Nc1c(C)cccc1C [Levobupivacaine HCl] | 108 | 91 | 72 |  |  | 
C[C@H]1COc2c(N3CCN(C)CC3)c(F)cc3c(=O)c(C(=O)O)cn1c23 [Levofloxacin hydrate] | 306 | 322 | 316 |  |  | 
C[C@H]1COc2c(N3CCN(C)CC3)c(F)cc3c(=O)c(C(=O)O)cn1c23 [Levofloxacin] | 314 | 264 | 238 |  |  | 
C#C[C@]1(O)CC[C@H]2[C@@H]3CCC4=CC(=O)CC[C@@H]4[C@H]3CC[C@@]21CC [Levonorgestrel] | 101 | 94 | 78 |  |  | 
C[C@@H]1CC(=O)NN=C1c1ccc(NN=C(C#N)C#N)cc1 [Levosimendan] | 58 | 76 | 69 |  |  | 
CCN1CCC[C@H]1CNC(=O)c1cc(S(N)(=O)=O)ccc1OC [Levosulpiride] | 103 | 98 | 84 |  |  | 
CC1(C)Cc2c(-c3ccccc3)c(-c3ccc(Cl)cc3)c(CC(=O)O)n2C1 [Licofelone] | 85 | 80 | 69 |  |  | 
CCN(CC)CC(=O)Nc1c(C)cccc1C [Lidocaine hydrochloride] | 88 | 97 | 84 |  |  | 
CC#CCn1c(N2CCC[C@@H](N)C2)nc2c1c(=O)n(Cc1nc(C)c3ccccc3n1)c(=O)n2C [Linagliptin] | 131 | 115 | 100 |  |  | 
CCC[C@@H]1C[C@@H](C(=O)N[C@@H]([C@H]2O[C@H](SC)[C@H](O)[C@@H](O)[C@H]2O)[C@@H](C)O)N(C)C1 [Lincomycin HCl] | 111 | 109 | 76 |  |  | 
CC(=O)NC[C@H]1CN(c2ccc(N3CCOCC3)c(F)c2)C(=O)O1 [Linezolid] | 97 | 98 | 89 |  |  | 
Cc1ccc(F)c(NC(=O)Nc2ccc(-c3cccc4[nH]nc(N)c34)cc2)c1 [Linifanib (ABT-869)] | 151 | 133 | 133 |  |  | 
NCCCC[C@H](N[C@@H](CCc1ccccc1)C(=O)O)C(=O)N1CCC[C@H]1C(=O)O [Lisinopril] | 86 | 100 | 93 |  |  | 
C[C@H](CCC(=O)O)[C@H]1CC[C@H]2[C@@H]3CC[C@@H]4C[C@H](O)CC[C@]4(C)[C@H]3CC[C@]12C [Lithocholic acid] | 75 | 82 | 73 |  |  | 
CCn1cc(C(=O)O)c(=O)c2cc(F)c(N3CCNC(C)C3)c(F)c21 (stereo not drawn) [Lomefloxacin HCl] | 121 | 123 | 110 |  |  | 
COc1ccc(CN2CCN(C(c3ccc(F)cc3)c3ccc(F)cc3)CC2)c(OC)c1OC.Cl.Cl [Lomerizine HCl] | 118 | 97 | 84 |  |  | 
O=C(NC1CCN(CCCCC2(C(=O)NCC(F)(F)F)c3ccccc3-c3ccccc32)CC1)c1ccccc1-c1ccc(C(F)(F)F)cc1 [Lomitapide Mesylate] | 119 | 129 | 125 |  |  | 
O=C(NC1CCN(CCCCC2(C(=O)NCC(F)(F)F)c3ccccc3-c3ccccc32)CC1)c1ccccc1-c1ccc(C(F)(F)F)cc1 [Lomitapide] | 118 | 124 | 117 |  |  | 
